# PubChem BioAssay (NCI)
#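 Following 48 hours of exposure in 96-well plates, responses at five concentrations were used to interpolate endpoints linearly. At the TGI there is no net growth.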
# What was measured:
# Assay in all cases: NCI anticancer screen, dose series, 48 h
# [1] = system: NCI-H226 lung
# [2] = system: ACHN renal
# [3] = system: NCI-H23 lung
# [4] = system: MDA-N
# [5] = system: SF-295 CNS
# [6] = system: K-562 leukemia
# [7] = system: MDA-MB-231 breast
# [8] = system: EKVX NSCLC
# [9] = system: NCI/ADR-RES ovarian
# [10] = system: PC-3 prostate
# [11] = system: T-47D breast
# [12] = system: SN12C renal
# [13] = system: SK-MEL-2 melanoma
# [14] = system: NCI-H460 lung
# [15] = system: TK-10 renal
# [16] = system: HCC-2998 colon
# [17] = system: LOX IMVI melanoma
# [18] = system: SF-268 CNS
# [19] = system: 786-0 renal
# [20] = system: MALME-3M melanoma
# [21] = system: HOP-62 NSCLC
# [22] = system: CAKI-1 renal
# [23] = system: OVCAR-3 ovarian
# [24] = system: BT-549 breast
# [25] = system: OVCAR-4 ovarian
# [26] = system: A549 NSCLC
# [27] = system: U251 CNS
# [28] = system: SW-620 colon
# [29] = system: HCT-116 colon
# [30] = system: MOLT-4 leukemia
# [31] = system: HCT-15 colon
# [32] = system: MCF7 breast
# [33] = system: NCI-H522 lung
# [34] = system: UACC-257 melanoma
# [35] = system: SK-MEL-28 melanoma
# [36] = system: OVCAR-8 ovarian
# [37] = system: COLO 205 colon
# [38] = system: A498 renal
# [39] = system: DU-145 prostate
# [40] = system: SNB-75 CNS
# [41] = system: RXF 393 renal
# [42] = system: HT29 colon
# [43] = system: SNB-19 CNS
# [44] = system: UO-31 renal
# [45] = system: SF-539 CNS
# [46] = system: UACC-62 melanoma
# [47] = system: HL-60(TB) leukemia
# [48] = system: HOP-92 NSCLC
# [49] = system: SK-OV-3 ovarian
# [50] = system: OVCAR-5 ovarian
# [51] = system: M14 melanoma
# [52] = system: SR leukemia
# [53] = system: SK-MEL-5 melanoma
# [54] = system: MDA-MB-435
# [55] = system: KM12 colon
# [56] = system: HS 578T breast
# [57] = system: IGROV1 ovarian
# [58] = system: CCRF-CEM leukemia
# [59] = system: RPMI-8226 leukemia
smiles,measurement,setting,value
C/C=C/[C@@H]1[C@H]2C(=O)[C@]3(Cl)[C@@H](/C=C/C)[C@@H]3C(=O)[C@@]12Cl,TGI,[1],> 100 µM
same,TGI,[2],> 100 µM
same,TGI,[3],> 100 µM
same,TGI,[4],> 100 µM
same,TGI,[5],> 100 µM
same,TGI,[6],> 100 µM
same,TGI,[7],> 100 µM
same,TGI,[8],> 100 µM
same,TGI,[9],> 100 µM
same,TGI,[10],> 100 µM
same,TGI,[11],> 100 µM
same,TGI,[12],> 100 µM
same,TGI,[13],> 100 µM
same,TGI,[14],> 100 µM
same,TGI,[15],> 100 µM
same,TGI,[16],> 100 µM
same,TGI,[17],> 100 µM
same,TGI,[18],> 100 µM
same,TGI,[19],> 100 µM
same,TGI,[20],> 100 µM
same,TGI,[21],> 100 µM
same,TGI,[22],> 100 µM
same,TGI,[23],> 100 µM
same,TGI,[24],> 100 µM
same,TGI,[25],> 100 µM
same,TGI,[26],> 100 µM
same,TGI,[27],> 100 µM
same,TGI,[28],> 100 µM
same,TGI,[29],> 100 µM
same,TGI,[30],> 100 µM
same,TGI,[31],> 100 µM
same,TGI,[32],> 100 µM
same,TGI,[33],> 100 µM
same,TGI,[34],> 100 µM
same,TGI,[35],> 100 µM
same,TGI,[36],> 100 µM
same,TGI,[37],> 100 µM
same,TGI,[38],> 100 µM
same,TGI,[39],> 100 µM
same,TGI,[40],> 100 µM
same,TGI,[41],> 100 µM
same,TGI,[42],> 100 µM
same,TGI,[43],> 100 µM
same,TGI,[44],> 100 µM
same,TGI,[45],> 100 µM
same,TGI,[46],> 100 µM
same,TGI,[47],> 100 µM
same,TGI,[48],> 100 µM
same,TGI,[49],> 100 µM
same,TGI,[50],> 100 µM
same,TGI,[51],> 100 µM
same,TGI,[52],> 100 µM
same,TGI,[53],> 100 µM
same,TGI,[54],> 100 µM
same,TGI,[55],> 100 µM
same,TGI,[56],> 100 µM
same,TGI,[57],> 100 µM
same,TGI,[58],> 100 µM
NC(=O)SCC(=O)Nc1ccc2cccc3c2c1CC3,TGI,[2],44.7 µM
same,TGI,[3],59.9 µM
same,TGI,[4],47.2 µM
same,TGI,[5],> 100 µM
same,TGI,[6],> 100 µM
same,TGI,[7],27.4 µM
same,TGI,[8],> 100 µM
same,TGI,[9],> 100 µM
same,TGI,[10],> 100 µM
same,TGI,[11],95.9 µM
same,TGI,[12],45.6 µM
same,TGI,[13],47.1 µM
same,TGI,[15],69.8 µM
same,TGI,[16],> 100 µM
same,TGI,[17],21.6 µM
same,TGI,[18],44.8 µM
same,TGI,[19],42.8 µM
same,TGI,[20],> 100 µM
same,TGI,[21],> 100 µM
same,TGI,[22],91.9 µM
same,TGI,[23],> 100 µM
same,TGI,[24],34.3 µM
same,TGI,[25],56.8 µM
same,TGI,[26],> 100 µM
same,TGI,[27],20.5 µM
same,TGI,[28],24.6 µM
same,TGI,[29],36 µM
same,TGI,[30],63.1 µM
same,TGI,[31],> 100 µM
same,TGI,[32],29.6 µM
same,TGI,[33],> 100 µM
same,TGI,[34],51.3 µM
same,TGI,[36],> 100 µM
same,TGI,[37],> 100 µM
same,TGI,[59],49.2 µM
same,TGI,[38],> 100 µM
same,TGI,[39],> 100 µM
same,TGI,[40],> 100 µM
same,TGI,[41],54.4 µM
same,TGI,[42],88.7 µM
same,TGI,[43],> 100 µM
same,TGI,[44],> 100 µM
same,TGI,[45],34.6 µM
same,TGI,[46],37.5 µM
same,TGI,[47],28.3 µM
same,TGI,[48],4.61 µM
same,TGI,[50],52 µM
same,TGI,[51],> 100 µM
same,TGI,[52],32.9 µM
same,TGI,[53],75.9 µM
same,TGI,[54],33.6 µM
same,TGI,[55],> 100 µM
same,TGI,[56],> 100 µM
same,TGI,[57],> 100 µM
same,TGI,[58],> 100 µM
COc1ccc(C2N(c3ccc(F)c([N+](=O)[O-])c3)C(=O)N3C(c4ccc(OC)cc4)N(c4ccc(F)c([N+](=O)[O-])c4)C(=O)N23)cc1 (stereo not drawn),TGI,[2],> 100 µM
same,TGI,[3],> 100 µM
same,TGI,[4],> 100 µM
same,TGI,[5],> 100 µM
same,TGI,[7],> 100 µM
same,TGI,[8],> 100 µM
same,TGI,[9],> 100 µM
same,TGI,[10],> 100 µM
same,TGI,[11],> 100 µM
same,TGI,[12],> 100 µM
same,TGI,[13],> 100 µM
same,TGI,[14],> 100 µM
same,TGI,[15],> 100 µM
same,TGI,[16],> 100 µM
same,TGI,[17],> 100 µM
same,TGI,[18],> 100 µM
same,TGI,[19],> 100 µM
same,TGI,[20],> 100 µM
same,TGI,[21],> 100 µM
same,TGI,[22],> 100 µM
same,TGI,[23],> 100 µM
same,TGI,[24],> 100 µM
same,TGI,[25],> 100 µM
same,TGI,[26],> 100 µM
same,TGI,[27],> 100 µM
same,TGI,[28],> 100 µM
same,TGI,[29],> 100 µM
same,TGI,[31],> 100 µM
same,TGI,[32],> 100 µM
same,TGI,[33],> 100 µM
same,TGI,[34],> 100 µM
same,TGI,[35],> 100 µM
same,TGI,[36],> 100 µM
same,TGI,[37],> 100 µM
same,TGI,[59],> 100 µM
same,TGI,[38],> 100 µM
same,TGI,[39],> 100 µM
same,TGI,[40],> 100 µM
same,TGI,[41],> 100 µM
same,TGI,[42],> 100 µM
same,TGI,[43],> 100 µM
same,TGI,[44],> 100 µM
same,TGI,[45],> 100 µM
same,TGI,[46],> 100 µM
same,TGI,[47],> 100 µM
same,TGI,[48],> 100 µM
same,TGI,[50],> 100 µM
same,TGI,[51],> 100 µM
same,TGI,[52],> 100 µM
same,TGI,[53],> 100 µM
same,TGI,[54],> 100 µM
same,TGI,[55],> 100 µM
same,TGI,[56],> 100 µM
same,TGI,[57],> 100 µM
same,TGI,[58],> 100 µM
